{
  "source": "patent US7056903B2",
  "about": "“Carboxylic acid derivatives as IP antagonists” (Syntex (U.S.A.) LLC, priority 2000, dated 2006)",
  "note": "Counter-ions that a name gives are not always drawn.",
  "data": [
    {"units": {"melting point": "°C"}, "values": [
      {"molecule": "O=C(NC(Cc1ccccc1)C(=O)O)OCc1ccc(CCCc2ccccc2)cc1", "note": "(centres unmarked) [Compound 168, 3-Phenyl-2-[4-(3-phenyl-propyl)-benzyloxycarbonylamino]-propionic acid]", "melting point": "134.8 to 135.2"},
      {"molecule": "O=C(N[C@H](Cc1ccccc1)C(=O)O)OCc1nc2cc(-c3ccccc3)ccc2o1", "note": "(as salt: ammonium) [Compound 53, (R)-3-phenyl-2-(5-phenyl-benzoxazol-2-ylmethoxycarbonylamino) propionic acid]", "melting point": "150.9 to 152.7"},
      {"molecule": "O=C(NC(Cc1cccnn1)C(=O)O)OCc1cc2cc(-c3ccccc3)ccc2o1", "note": "(centres unmarked) [Compound 167, 2-(5-phenyl-benzofuran-2-ylmethoxycarbonylamino)-3-pyridazin-3-yl-propionic acid]", "melting point": "174.7 to 175"},
      {"molecule": "O=C(NC(CNc1ccccc1)C(=O)O)OCc1ccc(-c2ccccc2)cc1", "note": "(centres unmarked) [Compound 179, 2-(biphenyl-4-ylmethoxycarbonylamino)-3-phenylamino-propionic acid]", "melting point": "143 to 146"},
      {"molecule": "O=C(N[C@H](Cc1ccccc1)C(=O)O)OCc1cc2cc(-c3cccc4[nH]ccc34)ccc2o1", "note": "(as salt: salt) [Compound 137, (R)-2-[5-(1H-indol-4-yl)-benzofuran-2-ylmethoxycarbonylamino]-3-phenyl-propionic acid]", "melting point": "100 to 106"},
      {"molecule": "O=C(NC(Cc1ccncc1)C(=O)O)OCc1cc2cc(-c3ccccc3)ccc2o1", "note": "(centres unmarked) [Compound 163, 2-(5-phenyl-benzofuran-2-ylmethoxycarbonylamino)-3-pyridin-4-yl-propionic acid]", "melting point": "219 to 220"},
      {"molecule": "O=C(N[C@H](Cc1ccccc1)C(=O)O)OCc1cc2cc(-c3cccnc3)ccc2o1", "note": "[Compound 124, (R)-3-phenyl-2-(5-pyridin-3-yl-benzofuran-2-ylmethoxycarbonylamino)-propionic acid]", "melting point": "143 to 145.7"},
      {"molecule": "O=C(N[C@H](Cc1ccccc1)C(=O)O)OCc1ccc(COc2ccccc2)cc1", "note": "[Compound 7, (R)-2-(4-Phenoxymethyl-benzyloxycarbonylamino)-3-phenyl-propionic acid]", "melting point": "115.9 to 116.7"},
      {"molecule": "O=C(N[C@H](Cc1ccccc1)C(=O)O)OCc1cc2cc(-c3cccc(F)c3F)ccc2o1", "note": "[Compound 100, (R)-2-[5-(2,3-difluoro-phenyl)-benzofuran-2-ylmethoxycarbonylamino]-3-phenyl-propionic acid]", "melting point": "159 to 160"},
      {"molecule": "O=C(N[C@H](Cc1ccc(Br)cc1)C(=O)O)OCc1cc2cc(-c3ccc(F)cc3)ccc2o1", "note": "[Compound 119, (R)-3-(4-bromo-phenyl)-2-[5-(4-fluoro-phenyl)-benzofuran-2-ylmethoxycarbonylamino]-propionic acid]", "melting point": "150.6 to 160"},
      {"molecule": "N#Cc1cccc(-c2nc3cc(COC(=O)N[C@H](Cc4ccc(F)cc4)C(=O)O)ccc3o2)c1", "note": "[Compound 159, (R)-2-[2-(3-cyano-phenyl)-benzoxazol-5-ylmethoxycarbonylamino]-3-(4-fluoro-phenyl)-propionic acid]", "melting point": "208.5 to 209.2"},
      {"molecule": "O=C(N[C@H](Cc1ccc(F)cc1)C(=O)O)OCc1cc2cc(-c3cccnc3)ccc2o1", "note": "(hydrate or solvate) [Compound 125, (R)-3-(4-fluoro-phenyl)-2-(5-pyridin-3-yl-benzofuran-2-ylmethoxycarbonylamino)-propionic acid]", "melting point": "176.9 to 178.4"},
      {"molecule": "O=C(NC(Cc1ccccc1)C(=O)O)OCc1ccc(COCc2ccccc2)cc1", "note": "(centres unmarked) [Compound 90, 2-(4-benzyloxymethyl-benzyloxycarbonylamino)-3-phenyl-propionic acid]", "melting point": "78.3 to 79.9"},
      {"molecule": "O=C(N[C@H](Cc1ccccc1)C(=O)O)OCc1cc2cc(-c3ccc4[nH]ccc4c3)ccc2o1", "note": "[Compound 138, (R)-2-[5-(1H-indol-5-yl)-benzofuran-2-ylmethoxycarbonylamino]-3-phenyl-propionic acid]", "melting point": "90 to 95"},
      {"molecule": "O=C(N[C@H](Cc1ccccc1)C(=O)O)OCc1cc2cc(-c3ccc(Cl)cc3)ccc2o1", "note": "(hydrate or solvate) [Compound 94, (R)-2-[5-(4-chloro-phenyl)-benzofuran-2-ylmethoxycarbonylamino]-3-phenyl-propionic acid]", "melting point": "129.5 to 144"},
      {"molecule": "COc1ccc(-c2ccc3oc(COC(=O)N[C@H](Cc4ccccc4)C(=O)O)cc3c2)cc1", "note": "(hydrate or solvate) [Compound 92, (R)-2-[5-(4-methoxy-phenyl)-benzofuran-2-ylmethoxycarbonylamino]-3-phenyl-propionic acid]", "melting point": "132 to 156.1"},
      {"molecule": "O=C(N[C@H](Cc1cccc(F)c1)C(=O)O)OCc1cc2cc(-c3ccc(F)cc3)ccc2o1", "note": "[Compound 120, (R)-3-(3-fluoro-phenyl)-2-[5-(4-fluoro-phenyl)-benzofuran-2-ylmethoxycarbonylamino]-propionic acid]", "melting point": "81.7 to 82.9"},
      {"molecule": "O=C(N[C@H](Cc1ccc(F)cc1)C(=O)O)OCc1cc2cc(-c3ccc(F)cc3)ccc2o1", "note": "(hydrate or solvate) [Compound 111, (R)-3-(4-fluoro-phenyl)-2-[5-(4-fluorophenyl)-benzofuran-2-ylmethoxycarbonylamino]-propionic acid]", "melting point": "158 to 162"},
      {"molecule": "O=C(N[C@@H](Cc1ccc(F)cc1)C(=O)O)OCc1cc2cc(-c3ccc(F)cc3)ccc2o1", "note": "[Compound 113, (S)-3-(4-fluoro-phenyl)-2-[5-(4-fluoro-phenyl)-benzofuran-2-ylmethoxycarbonylamino]-propionic acid]", "melting point": "148.3 to 157"},
      {"molecule": "O=C(NC(Cc1ccc(F)cc1)C(=O)O)OCc1cc2cc(-c3cc(Cl)cc(Cl)c3)ccc2o1", "note": "(centres unmarked) [Compound 177, 2-[5-(3,5-dichloro-phenyl)-benzofuran-2-ylmethoxycarbonylamino]-3-(4-fluoro-phenyl)-propionic acid]", "melting point": "101.1 to 103.2"},
      {"molecule": "Cn1cc(C[C@@H](NC(=O)OCc2ccc(COc3ccccc3)cc2)C(=O)O)c2ccccc21", "note": "[Compound 170, (R)-3-(1-methyl-1H-indol-3-yl)-2-(4-phenoxymethyl-benzyloxycarbonylamino)-propionic acid]", "melting point": "79.9 to 82.6"},
      {"molecule": "O=C(N[C@H](Cc1ccccc1)C(=O)O)OCc1ccc2oc(-c3ccc(F)cc3)nc2c1", "note": "[Compound 158, (R)-2-[2-(4-fluoro-phenyl)-benzoxazol-5-ylmethoxycarbonylamino]-3-phenyl-propionic acid]", "melting point": "208.2 to 208.5"},
      {"molecule": "O=C(N[C@H](Cc1ccc(F)cc1)C(=O)O)OCc1cc2cc(-c3ccc(F)c(F)c3)ccc2o1", "note": "[Compound 122, (R)-2-[5-(3,4-difluoro-phenyl)-benzofuran-2-ylmethoxycarbonylamino]-3-(4-fluoro-phenyl)-propionic acid]", "melting point": "97 to 99.1"},
      {"molecule": "O=C(N[C@H](Cc1ccccc1)C(=O)O)OCc1ccc(OCCCc2ccccc2)cc1", "note": "[Compound 87, (R)-3-phenyl-2-[4-(3-phenyl-propoxy)-benzyloxycarbonylamino]-propionic acid]", "melting point": "105.6 to 106.5"},
      {"molecule": "O=C(NC(Cc1ccccc1)C(=O)O)OCc1ccc(COc2ccccc2F)cc1", "note": "(centres unmarked) [Compound 75, 2-[4-(2-fluoro-phenoxymethyl)-benzyloxycarbonylamino]-3-phenyl-propionic acid]", "melting point": "114 to 117"},
      {"molecule": "O=C(N[C@H](Cc1nc2ccccc2[nH]1)C(=O)O)OCc1ccc(-c2ccccc2)cc1", "note": "[Compound 150, (R)-3-(1H-benzoimidazol-2-yl)-2-(biphenyl-4-ylmethoxycarbonylamino)-propionic acid]", "melting point": "243 to 245"}
    ]}
  ]
}
